Several values for one entry are separate records, joined by “and”; a condition that tells them apart may be missing. Identical values can stand only once. Inconclusive results and toxic doses are left out.
System: B6C3F1 mice, intracerebral ependymoblastoma, median survival T/C
Experiment: NCI In Vivo Anticancer Drug Screen. Data for tumor model Ependymoblastoma (intracerebral) in B6C3F1 mice
Conditions: endpoint: median survival time, higher = longer survival
Method: The antitumor activity of compounds was measured in mice bearing transplantable tumors. Survival or tumor size were measured and the results are expressed as the measurement made in the treated group (T) divided by the measurement made in the vehicle treated control group (C). The tumor model used in this assay is Ependymoblastoma (intracerebral) in B6C3F1 mice

[1] = dose: 32.0 mg/kg/injection, schedule: Q01DX005 (ip), vehicle: saline
[2] = dose: 25.0 mg/kg/injection, schedule: Q01DX005 (ip), vehicle: saline
[3] = dose: 50.0 mg/kg/injection, schedule: Q01DX005 (ip), vehicle: saline
[4] = dose: 100.0 mg/kg/injection, schedule: Q01DX005 (ip), vehicle: saline

## N=c1ccn2c(n1)OC1C(O)C(CO)OC12 (stereo unspecified)
dose: 37.5 mg/kg/injection, schedule: Q01DX005 (ip), vehicle: saline
  T/C: 118 % of control
dose: 75.0 mg/kg/injection, schedule: Q01DX005 (ip), vehicle: saline
  T/C: 104 % of control
dose: 100.0 mg/kg/injection, schedule: Q01DX001 (ip), vehicle: saline
  T/C: 92 % of control and 94 % of control and 109 % of control
dose: 150.0 mg/kg/injection, schedule: Q01DX005 (ip), vehicle: saline
  T/C: 115 % of control
dose: 200.0 mg/kg/injection, schedule: Q01DX001 (ip), vehicle: saline
  T/C: 100 % of control (2×) and 101 % of control
dose: 400.0 mg/kg/injection, schedule: Q01DX001 (ip), vehicle: saline
  T/C: 95 % of control and 98 % of control and 112 % of control
dose: 800.0 mg/kg/injection, schedule: Q01DX001 (ip), vehicle: saline
  T/C: 106 % of control and 112 % of control and 123 % of control
dose: 1600.0 mg/kg/injection, schedule: Q01DX001 (ip), vehicle: saline
  T/C: 99 % of control and 105 % of control and 115 % of control

## O=P(NC12CC3CC(CC(C3)C1)C2)(N1CC1)N1CC1
dose: 2.25 mg/kg/injection, schedule: Q01DX005 (ip), vehicle: Klucel (hydroxypropylcellulose) (HPC)
  T/C: 108 % of control and 113 % of control
dose: 4.5 mg/kg/injection, schedule: Q01DX005 (ip), vehicle: Klucel (hydroxypropylcellulose) (HPC)
  T/C: 111 % of control and 117 % of control
dose: 9.0 mg/kg/injection, schedule: Q01DX005 (ip), vehicle: Klucel (hydroxypropylcellulose) (HPC)
  T/C: 123 % of control
dose: 18.0 mg/kg/injection, schedule: Q01DX005 (ip), vehicle: Klucel (hydroxypropylcellulose) (HPC)
  T/C: 123 % of control

## O=NN(CCF)C(=O)NCCO
dose: 5.18 mg/kg/injection, schedule: Q01DX005 (ip), vehicle: Klucel (hydroxypropylcellulose) (HPC)
  T/C: 189 % of control
dose: 8.64 mg/kg/injection, schedule: Q01DX005 (ip), vehicle: Klucel (hydroxypropylcellulose) (HPC)
  T/C: 357 % of control
dose: 13.0 mg/kg/injection, schedule: Q01DX001 (ip), vehicle: saline
  T/C: 115 % of control
dose: 14.4 mg/kg/injection, schedule: Q01DX005 (ip), vehicle: Klucel (hydroxypropylcellulose) (HPC)
  T/C: 357 % of control
dose: 21.6 mg/kg/injection, schedule: Q01DX001 (ip), vehicle: saline
  T/C: 181 % of control
dose: 24.0 mg/kg/injection, schedule: Q01DX005 (ip), vehicle: Klucel (hydroxypropylcellulose) (HPC)
  T/C: 357 % of control
dose: 36.0 mg/kg/injection, schedule: Q01DX001 (ip), vehicle: saline
  T/C: 363 % of control
dose: 60.0 mg/kg/injection, schedule: Q01DX001 (ip), vehicle: saline
  T/C: 363 % of control

## c1ccc([C@H]2CN3CCSC3=N2)cc1
dose: 10.0 mg/kg/injection, schedule: Q01DX005 (ip), vehicle: saline
  T/C: 114 % of control
dose: 20.0 mg/kg/injection, schedule: Q01DX005 (ip), vehicle: saline
  T/C: 107 % of control
dose: 40.0 mg/kg/injection, schedule: Q01DX005 (ip), vehicle: saline
  T/C: 110 % of control

## S=c1nc[nH]c2nc[nH]c12
dose: 10.0 mg/kg/injection, schedule: Q01DX001 (ip), vehicle: Klucel (hydroxypropylcellulose) (HPC)
  T/C: 92 % of control and 99 % of control and 101 % of control
dose: 20.0 mg/kg/injection, schedule: Q01DX001 (ip), vehicle: Klucel (hydroxypropylcellulose) (HPC)
  T/C: 98 % of control and 100 % of control and 107 % of control
dose: 40.0 mg/kg/injection, schedule: Q01DX001 (ip), vehicle: Klucel (hydroxypropylcellulose) (HPC)
  T/C: 100 % of control and 103 % of control (2×)
dose: 80.0 mg/kg/injection, schedule: Q01DX001 (ip), vehicle: Klucel (hydroxypropylcellulose) (HPC)
  T/C: 95 % of control and 103 % of control and 107 % of control
dose: 160.0 mg/kg/injection, schedule: Q01DX001 (ip), vehicle: Klucel (hydroxypropylcellulose) (HPC)
  T/C: 100 % of control and 101 % of control and 116 % of control

## Nc1nc(SCc2ccccc2F)c2ncn(C3OC(CO)C(O)C3O)c2n1 (stereo unspecified)
dose: 0.78 mg/kg/injection, schedule: Q01DX005 (ip), vehicle: saline with Tween-80
  T/C: 101 % of control and 103 % of control
dose: 1.56 mg/kg/injection, schedule: Q01DX005 (ip), vehicle: saline with Tween-80
  T/C: 100 % of control and 109 % of control
dose: 3.12 mg/kg/injection, schedule: Q01DX005 (ip), vehicle: saline with Tween-80
  T/C: 93 % of control and 96 % of control
dose: 6.25 mg/kg/injection, schedule: Q01DX005 (ip), vehicle: saline with Tween-80
  T/C: 91 % of control and 104 % of control and 120 % of control
dose: 12.5 mg/kg/injection, schedule: Q01DX005 (ip), vehicle: saline with Tween-80
  T/C: 99 % of control
dose: 25.0 mg/kg/injection, schedule: Q01DX005 (ip), vehicle: saline with Tween-80
  T/C: 122 % of control

## CC(C)[C@](O)(C(=O)OCC1=CC[N+]2([O-])CC[C@@H](O)[C@@H]12)[C@H](C)O (stereo partly specified)
[1]
  T/C: 104 % of control
dose: 64.0 mg/kg/injection, schedule: Q01DX005 (ip), vehicle: saline
  T/C: 98 % of control and 101 % of control
dose: 128.0 mg/kg/injection, schedule: Q01DX005 (ip), vehicle: saline
  T/C: 95 % of control and 100 % of control
dose: 256.0 mg/kg/injection, schedule: Q01DX005 (ip), vehicle: saline
  T/C: 103 % of control and 108 % of control
dose: 512.0 mg/kg/injection, schedule: Q01DX005 (ip), vehicle: saline
  T/C: 94 % of control and 117 % of control

## Nc1ncnc2c1ncn2C1OC(COP(=O)(O)O)C(O)C1O (stereo unspecified)
[2]
  T/C: 100 % of control
[3]
  T/C: 106 % of control and 107 % of control
[4]
  T/C: 105 % of control and 112 % of control
dose: 200.0 mg/kg/injection, schedule: Q01DX005 (ip), vehicle: saline
  T/C: 107 % of control and 109 % of control
dose: 400.0 mg/kg/injection, schedule: Q01DX005 (ip), vehicle: saline
  T/C: 106 % of control and 112 % of control
dose: 800.0 mg/kg/injection, schedule: Q01DX005 (ip), vehicle: saline
  T/C: 117 % of control

## C[n+]1c2ccccc2nc2c(N)cc(N)cc21
dose: 4.0 mg/kg/injection, schedule: Q01DX005 (ip), vehicle: saline
  T/C: 100 % of control and 101 % of control
dose: 8.0 mg/kg/injection, schedule: Q01DX005 (ip), vehicle: saline
  T/C: 101 % of control and 102 % of control
dose: 16.0 mg/kg/injection, schedule: Q01DX005 (ip), vehicle: saline
  T/C: 103 % of control and 108 % of control
[1]
  T/C: 103 % of control and 114 % of control

## Nc1nncs1
dose: 6.25 mg/kg/injection, schedule: Q01DX009 (ip), vehicle: saline
  T/C: 91 % of control
dose: 12.5 mg/kg/injection, schedule: Q01DX009 (ip), vehicle: saline
  T/C: 96 % of control
dose: 25.0 mg/kg/injection, schedule: Q01DX009 (ip), vehicle: saline
  T/C: 102 % of control
dose: 50.0 mg/kg/injection, schedule: Q01DX009 (ip), vehicle: saline
  T/C: 115 % of control
dose: 64.0 mg/kg/injection, schedule: Q01DX005 (ip), vehicle: saline with Tween-80
  T/C: 110 % of control
dose: 100.0 mg/kg/injection, schedule: Q01DX009 (ip), vehicle: saline
  T/C: 107 % of control

## Cc1[nH]c(=O)[nH]c(=O)c1N(CCF)CCCl
dose: 2.0 mg/kg/injection, schedule: Q01DX005 (ip), vehicle: Klucel (hydroxypropylcellulose) (HPC)
  T/C: 90 % of control
dose: 2.0 mg/kg/injection, schedule: Q01DX005 (ip), vehicle: saline with Tween-80
  T/C: 98 % of control and 100 % of control
dose: 4.0 mg/kg/injection, schedule: Q01DX005 (ip), vehicle: Klucel (hydroxypropylcellulose) (HPC)
  T/C: 93 % of control and 108 % of control
dose: 4.0 mg/kg/injection, schedule: Q01DX005 (ip), vehicle: saline with Tween-80
  T/C: 102 % of control and 105 % of control
dose: 8.0 mg/kg/injection, schedule: Q01DX005 (ip), vehicle: Klucel (hydroxypropylcellulose) (HPC)
  T/C: 97 % of control and 114 % of control
dose: 8.0 mg/kg/injection, schedule: Q01DX005 (ip), vehicle: saline with Tween-80
  T/C: 96 % of control and 100 % of control
dose: 16.0 mg/kg/injection, schedule: Q01DX005 (ip), vehicle: Klucel (hydroxypropylcellulose) (HPC)
  T/C: 107 % of control and 89 % of control
dose: 16.0 mg/kg/injection, schedule: Q01DX005 (ip), vehicle: saline with Tween-80
  T/C: 106 % of control and 107 % of control
dose: 32.0 mg/kg/injection, schedule: Q01DX005 (ip), vehicle: Klucel (hydroxypropylcellulose) (HPC)
  T/C: 94 % of control and 123 % of control
dose: 32.0 mg/kg/injection, schedule: Q01DX005 (ip), vehicle: saline with Tween-80
  T/C: 100 % of control

## CC(=O)Nc1ccn(C2OC(COC(C)=O)C(OC(C)=O)C2OC(C)=O)c(=O)n1 (stereo unspecified)
dose: 150.0 mg/kg/injection, schedule: Q01DX005 (ip), vehicle: saline with Tween-80
  T/C: 105 % of control
dose: 300.0 mg/kg/injection, schedule: Q01DX005 (ip), vehicle: saline with Tween-80
  T/C: 112 % of control
dose: 600.0 mg/kg/injection, schedule: Q01DX005 (ip), vehicle: saline with Tween-80
  T/C: 107 % of control
dose: 1200.0 mg/kg/injection, schedule: Q01DX005 (ip), vehicle: saline with Tween-80
  T/C: 120 % of control

## CN(C)C1=CC(=O)C(N(C)C)=CC1=O
dose: 12.5 mg/kg/injection, schedule: Q01DX005 (ip), vehicle: saline
  T/C: 105 % of control
[2]
  T/C: 101 % of control
[3]
  T/C: 100 % of control
[4]
  T/C: 97 % of control

## CC(=O)OCC1OC(n2cnc3c(=S)nc[nH]c32)C(OC(C)=O)C1OC(C)=O (stereo unspecified)
dose: 50.0 mg/kg/injection, schedule: Q01DX005 (ip), vehicle: suspension in saline
  T/C: 100 % of control
dose: 100.0 mg/kg/injection, schedule: Q01DX005 (ip), vehicle: suspension in saline
  T/C: 111 % of control
dose: 200.0 mg/kg/injection, schedule: Q01DX005 (ip), vehicle: suspension in saline
  T/C: 108 % of control
